The results in this text go back to ChEMBL document CHEMBL1201862, “PubChem BioAssay data set” (2004).

Molecules are shown by their SMILES.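 Assay format: 96-well plates, 48-hour exposure. GI50 is the concentration that inhibits growth by half.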 The source made the active and inactive calls. Rule as the data show it: active = GI50 up to about 1.1 µM and inactive = higher. Where a SMILES comes first, the peptide text is derived from it. The star is where a group is joined. Boc = CC(C)(C)OC(=O)*

Some test systems named below: A498; CAKI-1; COLO 205; HCT-15; HT-29; KM12; MOLT-4; Malme-3M; NCI-H226; OVCAR-4; OVCAR-5; SF-295; SK-MEL-28; SN12C; SNB-19; SNB-75; SW-620; UACC-62; HL-60.
Test in all cases: growth of human tumour cells (NCI), 48 h

`CCc1c(O)c2c(c(O)c1C(C)=O)C(=O)c1c(cc(O)c(C(=O)O)c1C(=O)O)C2=O`: the GI50 with A498 is > 100 µM (inactive); in the test on CAKI-1 it was > 100 µM (inactive); with COLO 205 it was > 100 µM (inactive); in the test with HCT-15, more than 100 µM; in the test with HT-29, > 100 µM (inactive); with KM12 it was > 100 µM (inactive). For the same molecule, the GI50 in the test with MOLT-4, with Malme-3M, in the test on NCI-H226, in the test on OVCAR-4, with OVCAR-5 and in the test on SF-295 was > 100 µM (inactive) throughout. Besides, the GI50 in the test with SK-MEL-28, with SN12C, in the test with SNB-19, with SNB-75, with SW-620 and with UACC-62 was > 100 µM (inactive) in each case.

With `CN1NC(c2ccc(Cl)cc2)=C(C#N)C(=O)CC1c1ccccc1` (stereo not drawn), the GI50 with A498 is > 100 µM (inactive); in the test with CAKI-1, > 100 µM (inactive); with COLO 205 it was > 100 µM (inactive); with HCT-15 it was more than 100 µM; with HL-60, > 100 µM (inactive); in the test on HT-29 it was > 100 µM (inactive). Further, the GI50 with KM12 is > 100 µM (inactive); in the test on NCI-H226, > 10 µM (inactive); in the test with OVCAR-4, > 100 µM (inactive); in the test on OVCAR-5 it was > 100 µM (inactive); in the test on SF-295 it was > 100 µM (inactive); in the test on SK-MEL-28, > 100 µM (inactive). For the same molecule, the GI50 with SNB-19, with SNB-75 and in the test with SW-620 was > 100 µM (inactive) in each case.

With `CSc1nc2c(c(N3CCOCC3)n1)C(O)n1c(nc3ccccc31)S2` (stereo not drawn), the GI50 was 97.1 µM (inactive) in the test on A498; > 100 µM (inactive) in the test on CAKI-1; 0.055 µM (active) in the test with COLO 205; 63 µM with HCT-15; > 100 µM (inactive) in the test on HL-60; > 100 µM (inactive) in the test on HT-29. Moreover, the GI50 in the test with KM12 is 53.6 µM (inactive); in the test with MOLT-4 it was > 100 µM (inactive); in the test on Malme-3M it was 52.2 µM (inactive); in the test on OVCAR-4, 41 µM (inactive); in the test with OVCAR-5, > 100 µM (inactive); in the test on SF-295, 33.5 µM (inactive). For the same molecule, the GI50 with SN12C was 77.8 µM (inactive); in the test with SNB-19 it was 17.5 µM (inactive); with SNB-75, 30.5 µM (inactive); in the test with SW-620, 32.1 µM (inactive); with UACC-62, > 100 µM (inactive).

`CN1CCC(C(O)(c2ccccc2)c2ccc(Br)cc2)CC1` (stereo not drawn): the GI50 in the test with CAKI-1 is 14 µM (inactive); in the test on COLO 205, 15.3 µM (inactive); with HCT-15 it was 35.6 µM; in the test on HL-60, 20.4 µM (inactive); with HT-29, 20 µM (inactive); in the test with KM12, 18.6 µM (inactive). For the same molecule, the GI50 in the test with MOLT-4 is 23.1 µM (inactive); with Malme-3M it was 14.5 µM (inactive); in the test with NCI-H226, 21.8 µM (inactive); with OVCAR-4 it was 22.7 µM (inactive); with OVCAR-5 it was 21.2 µM (inactive); with SF-295, 17.9 µM (inactive). The GI50 in the test on SK-MEL-28 is 16.7 µM (inactive); in the test on SN12C, 16.9 µM (inactive); in the test with SNB-19 it was 45.2 µM (inactive); with SNB-75, 16.6 µM (inactive); in the test with SW-620 it was 21.4 µM (inactive); in the test with UACC-62, 15.7 µM (inactive).

For the molecule `COc1cc(O)c2c(=O)cc(C3(O)C=CC(=O)C=C3)oc2c1`, the GI50 was 4.05 µM (inactive) in the test with A498; < 0.0476 µM (active) in the test on CAKI-1; 0.463 µM (active) in the test on COLO 205; 0.0435 µM in the test on HCT-15; < 0.01 µM (active) with HL-60; < 0.01 µM (active) in the test with HT-29. Further, the GI50 is 0.083 µM (active) in the test with KM12; 0.0815 µM (active) with MOLT-4; < 0.01 µM (active) with Malme-3M; 0.394 µM (active) with NCI-H226; 0.393 µM (active) in the test with OVCAR-4; 0.631 µM (active) in the test on SF-295. The GI50 was 0.199 µM (active) in the test on SK-MEL-28; 0.135 µM (active) in the test on SN12C; 6.93 µM (inactive) in the test with SNB-19; 1.22 µM (inactive) in the test on SNB-75; < 0.0417 µM (active) in the test with SW-620; 0.378 µM (active) with UACC-62.

Turning to `NC(C/C=C/P(=O)(O)O)C(=O)O` (stereo not drawn), the GI50 was 2 µM (inactive) in the test with CAKI-1; > 100 µM (inactive) in the test on COLO 205; more than 100 µM with HCT-15; > 100 µM (inactive) in the test on HL-60; > 100 µM (inactive) with HT-29; > 100 µM (inactive) in the test on KM12. In addition, the GI50 with MOLT-4, in the test with OVCAR-4, in the test with OVCAR-5, with SF-295, in the test with SK-MEL-28 and in the test on SN12C was > 100 µM (inactive) throughout. For the same molecule, the GI50 was > 100 µM (inactive) in the test with SNB-19, 14.1 µM (inactive) in the test with SNB-75, > 100 µM (inactive) in the test on SW-620 and > 100 µM (inactive) with UACC-62.

For `COc1ccc(-c2cc(O)c3ccc(C)nc3n2)cc1`, the GI50 in the test with A498 is 65.6 µM (inactive); in the test on CAKI-1, > 100 µM (inactive); with COLO 205, > 100 µM (inactive); with HCT-15, more than 100 µM; in the test with HT-29, 81.5 µM (inactive); in the test with KM12 it was > 100 µM (inactive). The GI50 with MOLT-4 was 49.4 µM (inactive); with Malme-3M, > 100 µM (inactive); in the test on NCI-H226 it was > 100 µM (inactive); with OVCAR-4, > 100 µM (inactive); in the test with OVCAR-5, > 100 µM (inactive); with SK-MEL-28, > 100 µM (inactive). The GI50 in the test with SN12C was > 100 µM (inactive); with SNB-19, > 100 µM (inactive); with SW-620 it was > 100 µM (inactive); with UACC-62 it was 86.1 µM (inactive).

Turning to `Nc1nc(O)c2ncn(C3C=CC(CO)O3)c2n1` (stereo not drawn), the GI50 in the test with A498 was > 100 µM (inactive); in the test on CAKI-1, > 100 µM (inactive); in the test on COLO 205, > 100 µM (inactive); in the test with HCT-15, more than 100 µM; in the test on HT-29 it was > 100 µM (inactive); with KM12, > 100 µM (inactive). Moreover, the GI50 in the test with MOLT-4, in the test with Malme-3M, with NCI-H226, in the test on OVCAR-4, in the test with OVCAR-5 and with SF-295 was > 100 µM (inactive) throughout. Besides, the GI50 with SK-MEL-28, in the test on SN12C, in the test on SNB-19, with SNB-75 and in the test with SW-620 was > 100 µM (inactive) throughout.

For `CC(C)(C)OC(=O)NC(Cc1ccccc1)C(=O)N1CCCC1C(N)=O` (stereo not drawn) (Boc-Phe-Pro-NH2; configuration not given here), the GI50 with CAKI-1 was 9.29 µM (inactive); in the test with COLO 205 it was > 100 µM (inactive); with HCT-15, more than 100 µM; with HL-60 it was > 100 µM (inactive); in the test on HT-29, > 100 µM (inactive); with MOLT-4, > 100 µM (inactive). The GI50 with Malme-3M, in the test with OVCAR-4, in the test with SF-295, in the test with SK-MEL-28, in the test with SNB-19 and in the test with SW-620 was > 100 µM (inactive) each time. For the same molecule, in the test on UACC-62, the GI50 is > 100 µM (inactive).
